Tested on: cynomolgus monkeys
Assay: 14-day nasogastric gavage GLP toxicity study in cynomolgus monkeys
Assay type: in vivo, cynomolgus monkey
Source text: Assessments of neurobehavioral effects and general toxicity were based on mortality, functional observational battery (FOB) evaluations, clinical observations, body weight, and body temperature; ophthalmoscopic, electrocardiographic examinations; and anatomic and clinical pathology. The anatomical pathology evaluations included histopathology of a full list of tissues from all animals and a comprehensive evaluation of the central nervous system (including selected peripheral nerves) utilizing whole body perfusion and special stains. Bone marrow smears from all animals were evaluated microscopically. Complete differentials and myeloid-erythroid (ME) ratios were performed. Toxicokinetic assessment was conducted for the test article and metabolites.

[1] = 400/300 mg/kg/day F, 3 examined
[2] = 400/300 mg/kg/day M, 4 examined

COCCC1CC2CN3CCc4c([nH]c5ccccc45)C(C(=O)OC)(C2)C13.Cl (stereo not shown) [18-MC HCl, 18-Methoxycoronaridine hydrochloride]
mean cumulative body gain (Days 1-14) (150 mg/kg/day F): -0.12 kg | Bone marrow, femur: Depletion, mixed; number with observation (150 mg/kg/day F, 3 examined): 0 | Liver: Hypertrophy, hepatocellular, panlobular; number with observation (150 mg/kg/day F, 3 examined): 3 | Thymus: Depletion, lymphoid, cortex; number with observation (150 mg/kg/day F, 3 examined): 3 | Bone marrow, femur: Depletion, mixed, mild; number with observation (150 mg/kg/day M): 0 | Bone marrow, femur: Depletion, mixed, minimal; number with observation (150 mg/kg/day M): 1 | Bone marrow, femur: Depletion, mixed, moderate; number with observation (150 mg/kg/day M): 0 | Bone marrow, rib: Depletion, mixed, mild; number with observation (150 mg/kg/day M): 0 | Bone marrow, rib: Depletion, mixed, minimal; number with observation (150 mg/kg/day M): 1 | Bone marrow, rib: Depletion, mixed, moderate; number with observation (150 mg/kg/day M): 0 | Bone marrow, rib: Depletion, mixed; number with observation (150 mg/kg/day M): 1 | Bone marrow, sternum: Depletion, mixed, mild; number with observation (150 mg/kg/day M): 0 | Bone marrow, sternum: Depletion, mixed, minimal; number with observation (150 mg/kg/day M): 1 | Bone marrow, sternum: Depletion, mixed, moderate; number with observation (150 mg/kg/day M): 0 | Bone marrow, sternum: Depletion, mixed; number with observation (150 mg/kg/day M): 1 | Liver: Hypertrophy, hepatocellular, panlobular, mild; number with observation (150 mg/kg/day M): 3 | Liver: Hypertrophy, hepatocellular, panlobular, minimal; number with observation (150 mg/kg/day M): 0 | Thymus: Depletion lymphoid, generalized, mild; number with observation (150 mg/kg/day M): 0 | Thymus: Depletion lymphoid, generalized, moderate; number with observation (150 mg/kg/day M): 0 | Thymus: Depletion lymphoid, generalized; number with observation (150 mg/kg/day M): 0 | Thymus: Depletion, lymphoid, cortex, mild; number with observation (150 mg/kg/day M): 2 | Thymus: Depletion, lymphoid, cortex, minimal; number with observation (150 mg/kg/day M): 1 | Thymus: Depletion, lymphoid, cortex, moderate; number with observation (150 mg/kg/day M): 0 | mean cumulative body gain (Days 1-14) (150 mg/kg/day M): -0.28 kg | Bone marrow, femur: Depletion, mixed; number with observation (150 mg/kg/day M, 3 examined): 1 | Liver: Hypertrophy, hepatocellular, panlobular; number with observation (150 mg/kg/day M, 3 examined): 3 | Thymus: Depletion, lymphoid, cortex; number with observation (150 mg/kg/day M, 3 examined): 3 | mortality (400 mg/kg, first day of dosing): one male died | Bone marrow, femur: Depletion, mixed, mild; number with observation (400/300 mg/kg/day F): 0 | Bone marrow, femur: Depletion, mixed, minimal; number with observation (400/300 mg/kg/day F): 1 | Bone marrow, femur: Depletion, mixed, moderate; number with observation (400/300 mg/kg/day F): 0 | Bone marrow, rib: Depletion, mixed, mild; number with observation (400/300 mg/kg/day F): 1 | Bone marrow, rib: Depletion, mixed, minimal; number with observation (400/300 mg/kg/day F): 0 | Bone marrow, rib: Depletion, mixed, moderate; number with observation (400/300 mg/kg/day F): 0 | Bone marrow, rib: Depletion, mixed; number with observation (400/300 mg/kg/day F): 1 | Bone marrow, sternum: Depletion, mixed, mild; number with observation (400/300 mg/kg/day F): 1 | Bone marrow, sternum: Depletion, mixed, minimal; number with observation (400/300 mg/kg/day F): 0 | Bone marrow, sternum: Depletion, mixed, moderate; number with observation (400/300 mg/kg/day F): 0 | Bone marrow, sternum: Depletion, mixed; number with observation (400/300 mg/kg/day F): 1 | Liver: Hypertrophy, hepatocellular, panlobular, mild; number with observation (400/300 mg/kg/day F): 3 | Liver: Hypertrophy, hepatocellular, panlobular, minimal; number with observation (400/300 mg/kg/day F): 0 | Thymus: Depletion lymphoid, generalized, mild; number with observation (400/300 mg/kg/day F): 2 | Thymus: Depletion lymphoid, generalized, moderate; number with observation (400/300 mg/kg/day F): 1 | Thymus: Depletion lymphoid, generalized; number with observation (400/300 mg/kg/day F): 3 | Thymus: Depletion, lymphoid, cortex, mild; number with observation (400/300 mg/kg/day F): 0 | Thymus: Depletion, lymphoid, cortex, minimal; number with observation (400/300 mg/kg/day F): 0 | Thymus: Depletion, lymphoid, cortex, moderate; number with observation (400/300 mg/kg/day F): 0 | mean cumulative body gain (Days 1-14) (400/300 mg/kg/day F): -0.09 kg | Bone marrow, femur: Depletion, mixed; number with observation [1]: 1 | Liver: Hypertrophy, hepatocellular, panlobular; number with observation [1]: 3 | Thymus: Depletion, lymphoid, cortex; number with observation [1]: 0 | Bone marrow, femur: Depletion, mixed, mild; number with observation (400/300 mg/kg/day M): 1 | Bone marrow, femur: Depletion, mixed, minimal; number with observation (400/300 mg/kg/day M): 0 | Bone marrow, femur: Depletion, mixed, moderate; number with observation (400/300 mg/kg/day M): 1 | Bone marrow, rib: Depletion, mixed, mild; number with observation (400/300 mg/kg/day M): 1 | Bone marrow, rib: Depletion, mixed, minimal; number with observation (400/300 mg/kg/day M): 0 | Bone marrow, rib: Depletion, mixed, moderate; number with observation (400/300 mg/kg/day M): 1 | Bone marrow, rib: Depletion, mixed; number with observation (400/300 mg/kg/day M): 2 | Bone marrow, sternum: Depletion, mixed, mild; number with observation (400/300 mg/kg/day M): 1 | Bone marrow, sternum: Depletion, mixed, minimal; number with observation (400/300 mg/kg/day M): 0 | Bone marrow, sternum: Depletion, mixed, moderate; number with observation (400/300 mg/kg/day M): 1 | Bone marrow, sternum: Depletion, mixed; number with observation (400/300 mg/kg/day M): 2 | Liver: Hypertrophy, hepatocellular, panlobular, mild; number with observation (400/300 mg/kg/day M): 3 | Liver: Hypertrophy, hepatocellular, panlobular, minimal; number with observation (400/300 mg/kg/day M): 0 | Thymus: Depletion lymphoid, generalized, mild; number with observation (400/300 mg/kg/day M): 1 | Thymus: Depletion lymphoid, generalized, moderate; number with observation (400/300 mg/kg/day M): 2 | Thymus: Depletion lymphoid, generalized; number with observation (400/300 mg/kg/day M): 3 | Thymus: Depletion, lymphoid, cortex, mild; number with observation (400/300 mg/kg/day M): 0 | Thymus: Depletion, lymphoid, cortex, minimal; number with observation (400/300 mg/kg/day M): 0 | Thymus: Depletion, lymphoid, cortex, moderate; number with observation (400/300 mg/kg/day M): 0 | mean cumulative body gain (Days 1-14) (400/300 mg/kg/day M): -0.23 kg | Bone marrow, femur: Depletion, mixed; number with observation [2]: 2 | Liver: Hypertrophy, hepatocellular, panlobular; number with observation [2]: 3 | Thymus: Depletion, lymphoid, cortex; number with observation [2]: 0 | NOAEL (14 days): 50 mg/kg/day | highest non-lethal dose (cynomolgus monkey, in vivo): 300 mg/kg
